In PMC5690597, “Suppression and resolution of autoimmune arthritis by rhesus θ-defensin-1, an immunomodulatory macrocyclic peptide” (PLoS ONE, 2017):
Bridge positions count the residues as written; N and C are the ends. Peptide text beside a SMILES is read from it.

Legend:
[1] = target: ADAM10 (Homo sapiens, UniProt O14672); test: biochemical
Procedure: (§1) RTD-1 was analyzed for enzymatic inhibition against zinc metalloproteases ADAM17, ADAM10, matrix metalloproteases (MMPs) 1, 2, 3, 8, 9, 13, and 14, and cysteine cathepsins (Cats) B, C, H, K, L, S, and V (Table 1). ADAM10 and ADAM17 activities were measured by release of fluorogenic peptides cleaved from pro-TNF (R&D Systems, Minneapolis, MN). ADAM10 was diluted to 0.05 μg/ml and ADAM17 to 0.1 μg/ml with 25 mM TRIS, 2.5 μM ZnCl2, 0.005% Brij35, pH 9.0 and incubated with 0 to 3 μg/ml RTD-1 dissolved in 0.01% HOAc. Assay was initiated by addition of substrate (10 μM final) and enzymatic activity measured at 37°C (ADAM10) or 22°C (ADAM17) every 30 seconds for 1 h in a SpectraMax M5e fluorometer (Molecular Devices, Sunnyvale, CA) with 320 nm excitation and 405 nm emission.
(§2) Inhibition of MMPs by RTD-1 was performed as described, incubating each enzyme with 0–100 μg/ml of RTD-1. IC50 values were calculated by GraphPad Prism 5.01 (GraphPad Software, San Diego, CA) utilizing a non-linear curve fit of log [inhibitor] versus response with variable slope.

[2] = target: ADAM17 (Homo sapiens, UniProt P78536); test: biochemical
Chain of ADAM17 (P78536 215-824, species assumed): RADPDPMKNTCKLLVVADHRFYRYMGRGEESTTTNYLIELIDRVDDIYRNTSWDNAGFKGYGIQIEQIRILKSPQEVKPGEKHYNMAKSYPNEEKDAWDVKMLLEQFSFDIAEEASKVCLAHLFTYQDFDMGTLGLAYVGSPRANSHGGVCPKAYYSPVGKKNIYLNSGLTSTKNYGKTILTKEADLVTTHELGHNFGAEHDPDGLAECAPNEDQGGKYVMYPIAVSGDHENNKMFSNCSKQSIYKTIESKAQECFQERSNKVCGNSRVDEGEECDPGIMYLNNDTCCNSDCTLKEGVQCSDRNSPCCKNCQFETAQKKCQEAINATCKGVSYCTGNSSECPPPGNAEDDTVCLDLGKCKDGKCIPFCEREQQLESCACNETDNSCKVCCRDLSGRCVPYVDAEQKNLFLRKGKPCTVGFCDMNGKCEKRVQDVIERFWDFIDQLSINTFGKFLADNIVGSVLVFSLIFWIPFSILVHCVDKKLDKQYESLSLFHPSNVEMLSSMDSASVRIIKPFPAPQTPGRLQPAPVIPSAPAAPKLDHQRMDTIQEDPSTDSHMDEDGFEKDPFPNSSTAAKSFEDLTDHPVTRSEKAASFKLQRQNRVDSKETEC
Procedure: as §1, §2

[3] = target: Cathepsin B (Homo sapiens, UniProt P07858); test: biochemical
Procedure: (§3) RTD-1 inhibition of Cat B (BPS Bioscience, San Diego, CA) and Cats C, H, K, L, S, and V (R & D Systems) was analyzed in a 96 well format with enzyme-specific substrates per manufacturer’s instructions and as described in Table 1. The activity of each enzyme was determined in the presence of 0 to 50 μg/ml RTD-1.
as §2

[4] = target: Cathepsin C (Homo sapiens, UniProt P53634); test: biochemical
Chain of Cathepsin C (P53634 25-463, species assumed): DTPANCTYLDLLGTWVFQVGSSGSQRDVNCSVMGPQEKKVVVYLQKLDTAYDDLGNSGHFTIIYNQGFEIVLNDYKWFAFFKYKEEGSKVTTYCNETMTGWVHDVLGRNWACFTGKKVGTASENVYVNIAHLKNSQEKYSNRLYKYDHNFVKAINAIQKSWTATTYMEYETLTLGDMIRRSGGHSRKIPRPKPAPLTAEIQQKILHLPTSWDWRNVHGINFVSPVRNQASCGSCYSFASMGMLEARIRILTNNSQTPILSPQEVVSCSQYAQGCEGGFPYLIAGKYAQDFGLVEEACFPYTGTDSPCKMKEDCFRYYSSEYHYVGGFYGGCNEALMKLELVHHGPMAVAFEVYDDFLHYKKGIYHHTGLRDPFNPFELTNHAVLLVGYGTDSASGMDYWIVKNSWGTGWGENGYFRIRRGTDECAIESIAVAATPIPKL
Procedure: as §3, §2

[5] = target: Cathepsin H (Homo sapiens, UniProt P09668); test: biochemical
Chain of Cathepsin H (P09668 98-335, species assumed): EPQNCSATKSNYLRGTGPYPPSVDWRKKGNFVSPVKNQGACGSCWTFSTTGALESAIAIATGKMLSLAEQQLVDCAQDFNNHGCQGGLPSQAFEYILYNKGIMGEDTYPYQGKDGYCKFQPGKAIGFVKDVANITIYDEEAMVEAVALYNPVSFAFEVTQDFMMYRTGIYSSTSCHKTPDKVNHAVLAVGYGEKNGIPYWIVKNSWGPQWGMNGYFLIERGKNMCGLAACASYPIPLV
Procedure: as §3, §2

[6] = target: Cathepsin K (Homo sapiens, UniProt P43235); test: biochemical
Chain of Cathepsin K (P43235 115-329, species assumed): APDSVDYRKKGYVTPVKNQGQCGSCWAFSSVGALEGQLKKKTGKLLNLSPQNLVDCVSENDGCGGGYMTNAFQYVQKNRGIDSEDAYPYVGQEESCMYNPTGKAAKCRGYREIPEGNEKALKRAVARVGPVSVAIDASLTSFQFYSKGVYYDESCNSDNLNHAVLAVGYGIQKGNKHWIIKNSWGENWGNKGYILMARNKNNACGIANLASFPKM
Procedure: as §3, §2

[7] = target: Cathepsin L (Homo sapiens, UniProt P07711); test: biochemical
Chain of Cathepsin L (P07711 114-333, species assumed): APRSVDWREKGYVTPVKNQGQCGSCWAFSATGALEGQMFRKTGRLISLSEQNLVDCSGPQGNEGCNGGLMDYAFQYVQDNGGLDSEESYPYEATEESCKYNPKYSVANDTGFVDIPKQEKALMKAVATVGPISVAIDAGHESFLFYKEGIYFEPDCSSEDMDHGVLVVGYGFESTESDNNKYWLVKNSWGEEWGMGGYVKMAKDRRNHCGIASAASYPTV
Procedure: as §3, §2

[8] = target: Cathepsin S (Homo sapiens, UniProt P25774); test: biochemical
Chain of Cathepsin S (P25774 115-331, species assumed): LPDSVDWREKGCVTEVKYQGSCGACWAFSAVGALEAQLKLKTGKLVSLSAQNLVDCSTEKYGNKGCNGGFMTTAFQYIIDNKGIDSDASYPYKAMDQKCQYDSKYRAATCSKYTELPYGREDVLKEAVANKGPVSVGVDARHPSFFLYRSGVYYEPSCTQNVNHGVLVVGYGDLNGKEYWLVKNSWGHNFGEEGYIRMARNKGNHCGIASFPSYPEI
Procedure: as §3, §2

[9] = target: Cathepsin V (Homo sapiens, UniProt O60911); test: biochemical
Chain of Cathepsin V (O60911 114-334): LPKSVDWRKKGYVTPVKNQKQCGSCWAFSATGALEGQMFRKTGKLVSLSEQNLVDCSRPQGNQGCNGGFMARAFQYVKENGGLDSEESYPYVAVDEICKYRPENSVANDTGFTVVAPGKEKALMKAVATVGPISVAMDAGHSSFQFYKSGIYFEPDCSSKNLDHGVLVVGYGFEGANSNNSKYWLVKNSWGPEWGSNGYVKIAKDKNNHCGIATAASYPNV
Procedure: as §3, §2

[10] = target: MMP-13 (Homo sapiens, UniProt P45452); test: biochemical
Procedure: as §2

[11] = target: MMP-14 (Homo sapiens, UniProt P50281); test: biochemical
Procedure: as §2

[12] = target: MMP-2 (Homo sapiens, UniProt P08253); test: biochemical
Chain of MMP-2 (P08253 110-660, species assumed): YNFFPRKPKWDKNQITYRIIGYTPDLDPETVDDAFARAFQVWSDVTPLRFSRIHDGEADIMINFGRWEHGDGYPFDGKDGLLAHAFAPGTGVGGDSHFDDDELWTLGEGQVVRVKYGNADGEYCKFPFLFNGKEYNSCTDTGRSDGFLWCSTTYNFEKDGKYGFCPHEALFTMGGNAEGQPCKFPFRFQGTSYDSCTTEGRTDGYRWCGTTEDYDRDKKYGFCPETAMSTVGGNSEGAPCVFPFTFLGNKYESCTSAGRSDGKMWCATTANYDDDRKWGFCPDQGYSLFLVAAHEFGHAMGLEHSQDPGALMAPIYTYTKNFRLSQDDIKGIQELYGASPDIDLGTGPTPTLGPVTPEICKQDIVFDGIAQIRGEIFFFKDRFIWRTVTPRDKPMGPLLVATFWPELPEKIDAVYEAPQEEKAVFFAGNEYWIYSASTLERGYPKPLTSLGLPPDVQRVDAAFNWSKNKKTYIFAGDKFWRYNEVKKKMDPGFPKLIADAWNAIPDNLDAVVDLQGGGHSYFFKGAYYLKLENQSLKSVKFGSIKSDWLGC
Procedure: as §2

[13] = target: MMP-3 (Homo sapiens, UniProt P08254); test: biochemical
Chain of MMP-3 (P08254 100-477, species assumed): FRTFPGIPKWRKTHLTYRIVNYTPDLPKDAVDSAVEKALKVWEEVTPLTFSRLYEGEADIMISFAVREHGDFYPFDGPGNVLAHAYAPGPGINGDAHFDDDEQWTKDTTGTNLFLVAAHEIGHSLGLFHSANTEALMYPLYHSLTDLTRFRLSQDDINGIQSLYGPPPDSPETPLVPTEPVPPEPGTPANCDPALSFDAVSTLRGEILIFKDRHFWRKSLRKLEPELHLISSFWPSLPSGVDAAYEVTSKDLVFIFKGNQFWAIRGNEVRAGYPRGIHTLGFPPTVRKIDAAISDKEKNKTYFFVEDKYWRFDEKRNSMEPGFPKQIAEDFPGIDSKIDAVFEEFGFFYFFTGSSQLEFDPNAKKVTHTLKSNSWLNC
Procedure: as §2

[14] = target: MMP-9 (Homo sapiens, UniProt P14780); test: biochemical
Chain of MMP-9 (P14780 94-707, species assumed): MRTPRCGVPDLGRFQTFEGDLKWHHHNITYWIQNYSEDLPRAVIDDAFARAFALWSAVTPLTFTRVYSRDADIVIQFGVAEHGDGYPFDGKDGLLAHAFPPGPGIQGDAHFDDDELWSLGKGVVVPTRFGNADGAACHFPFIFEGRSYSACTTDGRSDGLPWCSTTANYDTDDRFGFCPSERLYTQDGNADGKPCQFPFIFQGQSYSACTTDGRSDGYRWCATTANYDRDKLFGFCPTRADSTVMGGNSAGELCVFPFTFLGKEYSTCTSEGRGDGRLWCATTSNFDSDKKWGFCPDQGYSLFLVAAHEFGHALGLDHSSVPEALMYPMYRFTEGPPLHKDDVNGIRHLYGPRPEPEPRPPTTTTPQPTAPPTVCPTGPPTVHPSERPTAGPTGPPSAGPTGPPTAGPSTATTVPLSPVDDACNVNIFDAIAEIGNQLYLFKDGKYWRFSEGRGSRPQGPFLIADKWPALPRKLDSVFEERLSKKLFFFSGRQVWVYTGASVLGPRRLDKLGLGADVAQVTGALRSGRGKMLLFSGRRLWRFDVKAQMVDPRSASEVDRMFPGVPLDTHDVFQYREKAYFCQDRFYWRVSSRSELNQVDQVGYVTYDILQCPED
Procedure: as §2

[15] = tested on: DA/OlaHsd rats with pristane-induced arthritis; test: Pristane-induced arthritis (PIA), established disease (AS ≥ 3); format: in vivo, rat
Procedure: Female DA/OlaHsd (D blood group allele and Agouti, also known as Dark Agouti), rats were obtained from Harlan Laboratories (Indianapolis, IN). Animals were allowed to acclimate for 48–72 hours prior to experimental use. Animals were fed standard chow ad lib during a 12-hour day/night cycle. PIA was induced in 5–7 week old animals (90–100 gm) by intradermal injection of 250 μl pristane (Sigma) divided into 3–5 sites at the base of the tail. Animals were monitored daily and disease severity of each limb was scored 0–4 using the method of Brand et al.. The severity scores for all limbs of individual animals were totaled to give an individual’s arthritis severity score (AS) ranging from zero for normal animals to maximum disease score of sixteen. […] In three separate trials, treatment was also blinded to scorers. […] Treatment with saline (vehicle), RTD-1, or anti-arthritic agents was randomized and initiated when an animal first presented with an AS of 3 or more. RTD-1 was administered subcutaneously with doses ranging from 0.2 to 5.0 mg/kg in an injection volume of 0.5 ml at intervals ranging from once a day (qd) to once every seven days (q7d). MTX was administered at 0.25 mg/kg by intraperitoneal injection q3d. Etanercept was administered at 0.4 mg/kg by subcutaneous injection q3d.

[16] = tested on: FLS from PIA rats; test: FLS invasion assay (Matrigel-coated transwell); format: cell-based; conditions: RTD-1 0.1 μg/ml; 24 h; 7 different rat DA FLS cell lines, mean
Procedure: Fibroblast-like synoviocytes (FLS) were isolated by enzymatic digestion of the synovial tissue from DA rats with PIA as previously described. Cells were washed and suspended in DMEM supplemented with 10% fetal bovine serum (Gibco, Grand Island, NY), 30 mg/ml L-glutamine (Sigma), 250 μg/ml amphotericin B (Sigma), and […] gentamicin (Gibco). After overnight culture, non-adherent cells were removed and adherent cells were cultured to approximately 70–90% confluence and passaged following detachment with 0.25% trypsin-EDTA for 3 min at 37°C. All experiments were performed with FLS after at least four passages.
FLS invasiveness was assayed in vitro using Matrigel-coated inserts in a transwell system (Becton, Dickinson and Company, Franklin Lakes, NJ) as previously described. Briefly, DA rat FLS (70–80% confluent) isolated as described above were suspended at 2.0 × 10^4 cells/well in serum-free DMEM. Cells were placed in the upper compartment of the Matrigel-coated inserts to which RTD-1 was added to final concentrations of 0.1, 1, or 10 μg/ml. The lower compartment contained complete medium with 10% FBS and plates were incubated at 37°C. […] The opposite side of the insert was stained with Crystal Violet (Sigma) and the total number of invading cells was counted at 100X magnification. […]

Chain of ADAM10 (O14672 214-748, species assumed): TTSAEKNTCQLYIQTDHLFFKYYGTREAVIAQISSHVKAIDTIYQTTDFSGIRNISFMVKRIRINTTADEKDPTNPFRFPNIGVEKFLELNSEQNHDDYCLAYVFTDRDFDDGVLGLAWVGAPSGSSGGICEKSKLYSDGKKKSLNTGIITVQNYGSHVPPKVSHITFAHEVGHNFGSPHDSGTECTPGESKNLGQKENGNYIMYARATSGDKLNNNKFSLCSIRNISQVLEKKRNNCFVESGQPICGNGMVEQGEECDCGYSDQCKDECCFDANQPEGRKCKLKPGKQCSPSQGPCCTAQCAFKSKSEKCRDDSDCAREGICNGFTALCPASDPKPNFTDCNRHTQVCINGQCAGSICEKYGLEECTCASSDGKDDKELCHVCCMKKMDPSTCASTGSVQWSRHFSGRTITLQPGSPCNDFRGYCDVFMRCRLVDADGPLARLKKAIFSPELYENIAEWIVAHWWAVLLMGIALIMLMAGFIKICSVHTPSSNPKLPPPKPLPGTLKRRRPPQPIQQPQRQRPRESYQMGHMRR

Molecule `CC[C@H](C)[C@@H]1NC(=O)[C@@H]2CSSC[C@H](NC(=O)[C@H](CCCNC(=N)N)NC(=O)[C@@H]3CSSC[C@H](NC1=O)C(=O)N[C@@H]([C@@H](C)O)C(=O)N[C@@H](CCCNC(=N)N)C(=O)NCC(=O)N[C@@H](Cc1ccccc1)C(=O)N3)C(=O)N[C@@H](CC(C)C)C(=O)N[C@H]1CSSC[C@H](NC(=O)[C@H](C(C)C)NC(=O)CNC(=O)[C@H](CCCNC(=N)N)NC(=O)[C@H](CCCNC(=N)N)NC1=O)C(=O)N[C@@H](CCCNC(=N)N)C(=O)N2` [RTD-1, rhesus θ-defensin 1] (cyclo(GFCRCLCRRGVCRCICTR); disulfide 3-16, 5-14, 7-12) has an IC50 [1] of 0.45 ± 0.2 µM, an IC50 [2] of 0.11 ± 0.04 µM and an IC50 [3] of 1 ± 0.1 µM. The IC50 [4] was 3.7 ± 0.6 µM, the IC50 [5] was greater than 50 µM and the IC50 ([6]; IC50, substrate z-FR-AMC 10 μM, enzyme 0.77 nM, RTD-1 0-50 μg/ml) was 0.027 ± 0.02 µM. For the same molecule, the IC50 ([6]; IC50 against cathepsin K, as quoted in running text from Table 1) was roughly 0.027 µM, the IC50 [7] was 1.4 ± 0.3 µM and the IC50 [8] was greater than 50 µM. For the same molecule, the IC50 [9] was 1.8 ± 0.6 µM, the IC50 [10] was 11 ± 0.4 µM and the IC50 [11] was 7.8 ± 0.3 µM. The IC50 [12] was 19.6 ± 0.04 µM, the IC50 [13] was greater than 50 µM and the IC50 [14] was 11.1 ± 0.2 µM. For the same molecule, the “complete resolution of disease (AS = 0), share of animals” value ([15]; 5 mg/kg s.c. daily for 11 days, 9 of 31 animals, saline 2.5% (1 of 40)) was 29%, the “reduction of mean arthritis severity score (AS) at the end of the observation period compared with vehicle controls” value ([15]; 5 mg/kg s.c. daily for 11 days, DA rats with PIA, AS ≥ 3 at start, 6 independent experiments) was 69% and the “disease resolution by dosing interval” value ([15]; 5 mg/kg s.c. daily, or once every 2, 3, or 5 days, n = 5 per group, single experiment) was “equivalent disease resolution”. The “rate of complete disease resolution on day 11, comparison with RA drugs” value ([15]; RTD-1 s.c. (4 of 16), MTX 0.25 mg/kg i.p. q3d (1 of 22), etanercept 0.4 mg/kg s.c. q3d (0 of 21), saline 0 of 19, 2 independent experiments) was 25%, the “therapeutic effect on AS compared to vehicle control” value ([15]; daily s.c. 0.2 mg/kg) was “no therapeutic effect” and the “reduction in AS compared to vehicle control” value ([15]; daily s.c. 1 mg/kg) was “modest, but not statistically significant reductions in AS”. The “reduction in AS compared to vehicle control by treatment day 3” value ([15]; daily s.c. 3 or 5 mg/kg, 2 independent experiments) was “significant (P ≤ 0.0015) and similar reductions in AS” and the “inhibition of FLS invasion” value [16] was 50%.
